Test results published in patent US20230061417A1, “THIENOPYRIMIDINE DERIVATIVES AS LPA RECEPTOR 2 INHIBITORS” (CHIESI FARMACEUTICI S.P.A., priority 2019, published 2023).

Molecular target: T1, human recombinant LPA2 (Homo sapiens, UniProt Q9HBW0)
T1 construct: expressed in transfected cells; host or cells: CHO (CHO-hLPA2 cell line)
Assay: FLIPR calcium mobilization assay, LPA2 antagonism in CHO-hLPA2 cells
Format: cell-based
Conditions: human recombinant LPA2 in CHO cells, LPA EC80 stimulation, 30 min pre-incubation; read-out: LPA2 IC50
Description: The effectiveness of compounds of the present invention as LPA2 antagonist can be determined at the human recombinant LPA2 expressed in CHO cells, using a FLIPR assay in 384 well format.
CHO-hLPA2 cell lines are cultured in a humidified incubator at 5% CO2 in DMEM/F-12 (1:1) MIXTURE with 2 mM Glutamax, supplemented with 10% of Foetal Bovine Serum, 1 mM Sodium Pyruvate, 11 mM Hepes and 1× Penicillin/Streptomycin. CHO hLPA2 cells are seeded into black walled clear-bottom 384-well plates (#781091, Greiner Bio-One GmbH) at a density of 7,500 cells per well in 50 μl culture media and grown overnight in a 37° C. humidified CO2-incubator. Serial dilutions (1:3 or 1:4, 11 points CRC) of compounds are performed in 100% DMSO at 200× the final concentration. The compounds are diluted 1:50 prior to the experiment with Assay Buffer (20 mM HEPES, 145 mM NaCl, 5 mM KCl, 5.5 mM glucose, 1 mM MgCl2 and 2 mM CaCl2, pH 7.4 containing 0.01% Pluronic F-127) to obtain a solution corresponding to […] the final concentration in the assay (4×, 2% DMSO). The final concentration of DMSO in the assay will be 0.5% in each well. Medium is removed by aspiration and cells are then incubated with 30 μl of a loading solution containing 5 μM of the cytoplasmic Ca2+ indicator Cal-520 AM in Assay Buffer containing 2.5 mM probenecid for 30 min at 37° C. incubator (cell loading). The loaded cell plates are transferred into the FLIPR instrument and calcium responses are monitored during the on-line addition protocols. For testing of compounds, after the cell loading, 10 μl/well of 4× antagonists' solution was added onto the cells. After 30 min pre-incubation (at 37° C.), 10 μl/well of 5× concentrated LPA EC80 was added and Ca2+ mobilization responses was followed during the on-line addition protocol. Intracellular peak fluorescence values subtracted by baseline fluorescence are exported and analysed to determine IC50 values, respectively. The calcium response is expressed as percentage of the maximal inhibition of the EC80 agonist response.
The raw data (peak height expressed as relative fluorescence units) are normalized and transformed into “percent of inhibition”. Curve fitting and pIC50 (−Log IC50) estimations are carried out using a four-parameter logistic model using XLfit Software.

T1 sequence (Q9HBW0 whole entry): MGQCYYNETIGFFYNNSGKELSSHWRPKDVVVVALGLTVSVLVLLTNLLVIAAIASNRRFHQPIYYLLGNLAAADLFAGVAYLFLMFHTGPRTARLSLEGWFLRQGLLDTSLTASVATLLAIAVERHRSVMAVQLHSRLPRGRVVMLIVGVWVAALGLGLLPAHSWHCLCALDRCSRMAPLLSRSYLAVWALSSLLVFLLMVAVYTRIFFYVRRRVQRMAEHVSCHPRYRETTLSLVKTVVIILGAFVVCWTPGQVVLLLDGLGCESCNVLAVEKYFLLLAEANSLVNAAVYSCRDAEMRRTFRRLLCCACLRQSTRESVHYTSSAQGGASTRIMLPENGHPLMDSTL

Compound | IC50
COC(=O)Nc1nc(C)c(S(=O)(=O)N2CCN(C[C@H](C)Nc3ncnc4c(C(F)(F)F)csc34)CC2)s1 [Example 1, methyl N-[4-methyl-5-({4-[(2S)-2-{[7-(trifluoromethyl)thieno[3,2-d]pyrimidin-4-yl]amino}propyl]piperazin-1-yl}sulfonyl)-1,3-thiazol-2-yl]carbamate] | 0.01 to 0.1 µM
Cc1nc(-c2ccc(S(=O)(=O)N3CCN(C[C@H](C)Nc4ncnc5c(C)csc45)CC3)cc2)cs1 [Example 5, 7-methyl-N-[(2S)-1-{4-[4-(2-methyl-1,3-thiazol-4-yl)benzenesulfonyl]piperazin-1-yl}propan-2-yl]thieno[3,2-d]pyrimidin-4-amine] | < 1 µM
Cc1csc2c(N[C@@H](C)CN3CCN(S(=O)(=O)c4cccc(Br)c4)CC3)ncnc12 [Example 7, N-[(2S)-1-[4-(3-bromobenzenesulfonyl)piperazin-1-yl]propan-2-yl]-7-methylthieno[3,2-d]pyrimidin-4-amine] | < 1 µM
Cc1csc2c(N[C@@H](C)CN3CCN(S(=O)(=O)c4ccc(F)c(Cl)c4)CC3)ncnc12 [Example 9, N-[(2S)-1-[4-(3-chloro-4-fluorobenzenesulfonyl)piperazin-1-yl]propan-2-yl]-7-methylthieno[3,2-d]pyrimidin-4-amine] | < 1 µM
Cc1csc2c(N[C@@H](C)CN3CCN(S(=O)(=O)c4ccc(Br)c(Cl)c4)CC3)ncnc12 [Example 11, N-[(2S)-1-[4-(4-bromo-3-chlorobenzenesulfonyl)piperazin-1-yl]propan-2-yl]-7-methylthieno[3,2-d]pyrimidin-4-amine] | < 1 µM
Cc1csc2c(N[C@@H](C)CN3CCN(S(=O)(=O)c4cnc(-c5ccccc5)nc4)CC3)ncnc12 [Example 15, 7-methyl-N-[(2S)-1-{4-[(2-phenylpyrimidin-5-yl)sulfonyl]piperazin-1-yl}propan-2-yl]thieno[3,2-d]pyrimidin-4-amine] | < 1 µM
Cc1csc2c(N[C@@H](C)CN3CCN(S(=O)(=O)c4ccc(NC(=O)c5ccncc5)cc4)CC3)ncnc12 [Example 16, N-[4-({4-[(2S)-2-({7-methylthieno[3,2-d]pyrimidin-4-yl}amino)propyl]piperazin-1-yl}sulfonyl)phenyl]pyridine-4-carboxamide] | < 1 µM
Cc1csc(-c2ccc(S(=O)(=O)N3CCN(C[C@H](C)Nc4ncnc5c(C)csc45)CC3)cc2)n1 [Example 17, 7-methyl-N-[(2S)-1-{4-[4-(4-methyl-1,3-thiazol-2-yl)benzenesulfonyl]piperazin-1-yl}propan-2-yl]thieno[3,2-d]pyrimidin-4-amine] | < 1 µM
Cc1csc2c(N[C@@H](C)CN3CCN(S(=O)(=O)c4ccc(-c5ccno5)s4)CC3)ncnc12 [Example 21, 7-methyl-N-[(2S)-1-(4-{[5-(1,2-oxazol-5-yl)thiophen-2-yl]sulfonyl}piperazin-1-yl)propan-2-yl]thieno[3,2-d]pyrimidin-4-amine] | < 1 µM
Cc1csc2c(N[C@@H](C)CN3CCN(S(=O)(=O)c4cnn(-c5ccc(C(F)(F)F)cn5)c4)CC3)ncnc12 [Example 25, 7-methyl-N-[(2S)-1-[4-({1-[5-(trifluoromethyl)pyridin-2-yl]-1H-pyrazol-4-yl}sulfonyl)piperazin-1-yl]propan-2-yl]thieno[3,2-d]pyrimidin-4-amine] | < 1 µM
Cc1noc(-c2ccc(S(=O)(=O)N3CCN(C[C@H](C)Nc4ncnc5c(C)csc45)CC3)s2)c1C [Example 28, N-[(2S)-1-(4-{[5-(3,4-dimethyl-1,2-oxazol-5-yl)thiophen-2-yl]sulfonyl}piperazin-1-yl)propan-2-yl]-7-methylthieno[3,2-d]pyrimidin-4-amine] | 0.01 to 0.1 µM
Cc1csc2c(N[C@@H](C)CN3CCN(S(=O)(=O)c4ccc(-c5cc(C(F)(F)F)n(C)n5)s4)CC3)ncnc12 [Example 29, 7-methyl-N-[(2S)-1-[4-({5-[1-methyl-5-(trifluoromethyl)-1H-pyrazol-3-yl]thiophen-2-yl}sulfonyl)piperazin-1-yl]propan-2-yl]thieno[3,2-d]pyrimidin-4-amine] | < 1 µM
Cc1csc2c(N[C@@H](C)CN3CCN(S(=O)(=O)c4ccc(-c5ccccn5)s4)CC3)ncnc12 [Example 30, 7-methyl-N-[(2S)-1-(4-{[5-(pyridin-2-yl)thiophen-2-yl]sulfonyl}piperazin-1-yl)propan-2-yl]thieno[3,2-d]pyrimidin-4-amine] | < 1 µM

The remaining lines, values ahead:

IC50 | Compound
< 1 µM | COC(=O)c1ccc(S(=O)(=O)N2CCN(C[C@H](C)Nc3ncnc4c(C)csc34)CC2)s1 [Example 4, Methyl 5-({4-[(2S)-2-({7-methylthieno[3,2-d]pyrimidin-4-yl}amino)propyl]piperazin-1-yl}sulfonyl)thiophene-2-carboxylate]
< 1 µM | CC(=O)Nc1cc(F)c(S(=O)(=O)N2CCN(C[C@H](C)Nc3ncnc4c(C)csc34)CC2)cc1C [Example 6, N-[5-fluoro-2-methyl-4-({4-[(2S)-2-({7-methylthieno[3,2-d]pyrimidin-4-yl}amino)propyl]piperazin-1-yl}sulfonyl)phenyl]acetamide]
< 1 µM | Cc1csc2c(N[C@@H](C)CN3CCN(S(=O)(=O)c4cc(Br)c(Cl)s4)CC3)ncnc12 [Example 10, N-[(2S)-1-{4-[(4-bromo-5-chlorothiophen-2-yl)sulfonyl]piperazin-1-yl}propan-2-yl]-7-methylthieno[3,2-d]pyrimidin-4-amine]
< 1 µM | COC(=O)c1cc(Br)c(S(=O)(=O)N2CCN(C[C@H](C)Nc3ncnc4c(C)csc34)CC2)s1 [Example 13, methyl 4-bromo-5-({4-[(2S)-2-({7-methylthieno[3,2-d]pyrimidin-4-yl}amino)propyl]piperazin-1-yl}sulfonyl)thiophene-2-carboxylate]
< 1 µM | CC(=O)Nc1cc(F)c(S(=O)(=O)N2CCN(C[C@H](C)Nc3ncnc4c(C)csc34)CC2)cc1Cl [Example 18, N-[2-chloro-5-fluoro-4-({4-[(2S)-2-({7-methylthieno[3,2-d]pyrimidin-4-yl}amino)propyl]piperazin-1-yl}sulfonyl)phenyl]acetamide]
< 1 µM | CCC(=O)Nc1nc(C)c(S(=O)(=O)N2CCN(C[C@H](C)Nc3ncnc4c(C)csc34)CC2)s1 [Example 19, N-[4-methyl-5-({4-[(2S)-2-({7-methylthieno[3,2-d]pyrimidin-4-yl}amino)propyl]piperazin-1-yl}sulfonyl)-1,3-thiazol-2-yl]propanamide]
< 1 µM | COC(=O)Nc1nc(C)c(S(=O)(=O)N2CCN(C[C@H](C)Nc3ncnc4c(C)csc34)CC2)s1 [Example 20, methyl N-[4-methyl-5-({4-[(2S)-2-({7-methylthieno[3,2-d]pyrimidin-4-yl}amino)propyl]piperazin-1-yl}sulfonyl)-1,3-thiazol-2-yl]carbamate]
< 1 µM | CC(=O)Nc1ncc(S(=O)(=O)N2CCN(C[C@H](C)Nc3nc(C4CC4)nc4c(C)csc34)CC2)s1 [Example 22, N-[5-({4-[(2S)-2-({2-cyclopropyl-7-methylthieno[3,2-d]pyrimidin-4-yl}amino)propyl]piperazin-1-yl}sulfonyl)-1,3-thiazol-2-yl]acetamide]
< 1 µM | Cc1nc2ccc(S(=O)(=O)N3CCN(C[C@H](C)Nc4ncnc5c(C)csc45)CC3)cc2s1 [Example 23, 7-methyl-N-[(2S)-1-{4-[(2-methyl-1,3-benzothiazol-6-yl)sulfonyl]piperazin-1-yl}propan-2-yl]thieno[3,2-d]pyrimidin-4-amine]
< 1 µM | CC(=O)N1CCc2cc(S(=O)(=O)N3CCN(C[C@H](C)Nc4ncnc5c(C)csc45)CC3)ccc21 [Example 24, 1-[5-({4-[(2S)-2-({7-methylthieno[3,2-d]pyrimidin-4-yl}amino)propyl]piperazin-1-yl}sulfonyl)-2,3-dihydro-1H-indol-1-yl]ethan-1-one]
< 1 µM | Cc1nc(NC=O)sc1S(=O)(=O)N1CCN(C[C@H](C)Nc2ncnc3c(C)csc23)CC1 [Example 26, N-[4-methyl-5-({4-[(2S)-2-({7-methylthieno[3,2-d]pyrimidin-4-yl}amino)propyl]piperazin-1-yl}sulfonyl)-1,3-thiazol-2-yl]formamide]
< 1 µM | Cc1nc(-c2ccc(S(=O)(=O)N3CCN(C[C@H](C)Nc4ncnc5c(C)csc45)CC3)s2)cs1 [Example 27, 7-methyl-N-[(2S)-1-(4-{[5-(2-methyl-1,3-thiazol-4-yl)thiophen-2-yl]sulfonyl}piperazin-1-yl)propan-2-yl]thieno[3,2-d]pyrimidin-4-amine]
